Like-named read-outs stand apart in the source and are kept apart here.
Legend:
[1] = test system: SKMEL-2 (wild-type Raf, mutant N-Ras); conditions: SKMEL-2 cells; 0.1 μM to 10 μM; 4 hours of incubation
[2] = assay type: in vivo, Nu/Nu mice; conditions: for Mean body weight loss on day 28: 100 mg/kg per dose
Experimental: Therefore, the most efficacious dosage of 100 mg/kg was further evaluated as described below.

[3] = test system: SKMEL-28 (mutant B-Raf V600E); assay: cells; conditions: Homo sapiens, SK-MEL-28, read-out: pERK inhibition EC50
[4] = test system: HT-29 (B-Raf V600E) colorectal carcinoma tumors; conditions: HT29, q2 d × 14, oral
human tumor isolate #3 = assay: cells
[5] = assay type: in vivo, mice; conditions: at target plasma concentration, corrected for protein binding
human tumor isolate #5 [6] = assay: cells; conditions: Colorectal tumor, K-Ras
human tumor isolate #6 = assay: cells
human tumor isolate #5 [7] = conditions: Colorectal tumor, K-Ras
[8] = test system: CHL-1 (wild-type Raf, wild-type Ras); conditions: CHL-1 cells; 0.1 μM to 10 μM; 4 hours of incubation
Plasma protein binding = assay type: in vitro ADME
human tumor isolate #1 = assay: cells
Colo205 (cell line) = assay: cells; conditions: Homo sapiens, COLO 205, 168 h
human tumor isolated #7 = assay: tissue or blood
HT-29 (cell line) = assay: cells; conditions: Homo sapiens, HT-29, 168 h
human tumor isolate #4 [9] = conditions: Pancreatic tumor, K-Ras
human tumor isolate #2 = assay: cells
WM1799 (cell line) = assay: cells; conditions: WM-1799, 168 h
human tumor isolate #4 [10] = assay: cells; conditions: Pancreatic tumor, K-Ras

In the case of `Cn1c(Nc2ccc(C(F)(F)F)cc2)nc2cc(Oc3ccnc(-c4ncc(C(F)(F)F)[nH]4)c3)ccc21` [Example 1, {1-Methyl-5-[2-(5-trifluoromethyl-1H-imidazol-2-yl)-pyridin-4-yloxy]-1H-benzoimidazol-2-yl}-(4-trifluoromethyl-phenyl)-amine], the “inhibition of Raf downstream signaling (MEK phosphorylation)” value [1] is reported as “potent inhibitor of Raf downstream signaling”, the “Mean body weight loss on day 28” value ([2]; q2 d) is reported as 12% and the “Mean body weight loss on day 28” value ([2]; q3 d) is reported as 8%. For the same molecule, the “Mean body weight loss on day 28” value ([2]; q4 d) was 7%, the “average loss of starting body weight by day 14” value ([2]; daily dosing, 30 mg/kg and 100 mg/kg dose levels) was 10% and the EC50 [3] was 100 nM. For the same molecule, the TGI/Regression ([4]; 10 mg/kg) was 12% TGI, the TGI/Regression ([4]; 100 mg/kg) was “tumor regression” and the EC50 (human tumor isolate #3) was 570 nM. The “rough estimation of free drug concentration” value [5] was “approximately 0.135 μM”, the EC50 (human tumor isolate #5 [6]) was ~1000 nM and the EC50 (human tumor isolate #6) was > 1000 nM. For the same molecule, the EC50 (human tumor isolate #5 [7]) was 1200 nM, the “inhibition of Raf downstream signaling (MEK phosphorylation)” value [8] was “potent inhibitor of Raf downstream signaling” and the “protein bound in plasma” value (Plasma protein binding) was “greater than 99.9%”. The EC50 (human tumor isolate #1) was 55 nM, the EC50 (Colo205 (cell line)) was 130 nM and the EC50 (human tumor isolated #7) was > 1000 nM. It also gave an EC50 (HT-29 (cell line)) of 26 nM, an EC50 (human tumor isolate #4 [9]) of 1270 nM and an EC50 (human tumor isolate #2) of 200 nM. The EC50 (WM1799 (cell line)) was < 9.8 nM and the EC50 (human tumor isolate #4 [10]) was ~1000 nM.
